“And” between values parts separate entries of the source, which are not always exact repeats. Identical values can stand only once.
Molecular target: T1, canine TRPM8 (Canis lupus familiaris, UniProt Q1A7N1)
T1 construct: expressed in transfected cells
Test: In Vitro Canine TRPM8 Functional Assay (Ca2+ fluorescence, icilin activation)
Type: cell-based
Conditions: for % Inh @ 0.5 μM: 0.5 μM compound; for IC50: HEK293 cells stably expressing canine TRPM8, icilin activation, Ca2+ fluorescence; for inhibition at 0.5 µM: HEK293, 0.5 μM compound; for inhibition at 0.2 µM: HEK293, 0.2 μM compound; for % Inh @ 0.2 μM: 0.2 μM compound; for inhibition at 1 µM: HEK293, 1 μM compound
Summary of the method: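 Antagonism read as inhibition of the intracellular Ca2+ rise evoked by icilin (~EC80), measured by FLIPR or FDSS. Stable canine TRPM8 HEK293 line, Calcium 3 dye; 5 min compound preincubation. Normalised, basal-corrected peak fluorescence from quadruplicates fitted to sigmoidal curves.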

[1] = canine TRPM8 HEK293, icilin, 0.5 µM
[2] = canine TRPM8 HEK293, icilin, 0.2 µM

T1 sequence (Q1A7N1 1-1104): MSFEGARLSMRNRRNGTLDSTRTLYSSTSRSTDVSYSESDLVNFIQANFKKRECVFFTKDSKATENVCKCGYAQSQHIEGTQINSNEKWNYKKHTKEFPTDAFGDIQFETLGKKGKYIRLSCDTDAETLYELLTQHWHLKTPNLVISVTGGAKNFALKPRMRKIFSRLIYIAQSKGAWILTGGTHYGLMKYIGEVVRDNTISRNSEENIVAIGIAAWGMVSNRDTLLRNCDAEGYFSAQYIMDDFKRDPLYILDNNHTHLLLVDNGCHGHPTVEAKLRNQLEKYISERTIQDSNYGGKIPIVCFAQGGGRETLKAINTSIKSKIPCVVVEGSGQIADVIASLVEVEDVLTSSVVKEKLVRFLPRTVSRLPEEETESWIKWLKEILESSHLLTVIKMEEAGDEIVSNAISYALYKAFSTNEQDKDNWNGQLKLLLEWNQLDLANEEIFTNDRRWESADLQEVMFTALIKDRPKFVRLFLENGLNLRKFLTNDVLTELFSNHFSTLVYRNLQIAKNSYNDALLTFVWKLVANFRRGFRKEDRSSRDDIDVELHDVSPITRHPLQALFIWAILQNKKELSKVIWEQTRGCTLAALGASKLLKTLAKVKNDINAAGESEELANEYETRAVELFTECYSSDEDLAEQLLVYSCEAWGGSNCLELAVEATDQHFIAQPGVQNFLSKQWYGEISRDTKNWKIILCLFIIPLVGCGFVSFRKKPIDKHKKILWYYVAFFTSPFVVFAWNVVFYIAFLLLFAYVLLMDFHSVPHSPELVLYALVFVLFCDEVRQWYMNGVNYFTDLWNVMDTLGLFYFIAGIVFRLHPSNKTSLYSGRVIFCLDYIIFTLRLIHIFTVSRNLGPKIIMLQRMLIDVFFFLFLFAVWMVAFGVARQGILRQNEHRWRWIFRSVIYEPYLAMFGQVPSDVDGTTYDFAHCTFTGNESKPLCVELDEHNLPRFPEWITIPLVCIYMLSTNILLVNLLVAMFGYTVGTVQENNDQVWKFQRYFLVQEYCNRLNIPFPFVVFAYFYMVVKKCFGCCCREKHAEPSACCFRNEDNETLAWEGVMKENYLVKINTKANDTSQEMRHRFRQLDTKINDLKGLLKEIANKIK

O=C(C(Nc1ccccc1)c1ccc(C(F)(F)F)cc1)N1CCCC1c1ccccc1Cl (single isomer, unassigned) [Cpd 23]
% Inh @ 0.5 μM [1]: 103.39%
IC50: 17.2 nM

O=C(C(Nc1ccc(F)cc1)c1ccc(Cl)cc1)N1Cc2cccc(F)c2C1 (stereo not shown) [Cpd 121]
inhibition at 0.5 µM (canine TRPM8 HEK293, icilin): 97%
IC50: 125 nM

O=C(C(Nc1cc(F)ccc1F)c1ccc(Cl)cc1)N1CCCC1c1ccccc1 (stereo not shown) [Cpd 173]
inhibition at 0.2 µM (canine TRPM8 HEK293, icilin): 103%
IC50: 35.6 nM

COC(=O)C1CCC(c2ccccc2)N1C(=O)C(Nc1c(F)cccc1F)c1ccc(Br)cc1 (stereo not shown) [Cpd 211]
% Inh @ 0.2 μM [2]: 69%

O=C(C(Nc1c(F)cccc1F)c1ccc(Cl)cc1)N1CCCC1c1ccccc1Cl (stereo not shown) [Cpd 143]
inhibition at 0.5 µM (canine TRPM8 HEK293, icilin): 101%
IC50: 25 nM

COc1ccccc1[C@@H]1CCCN1C(=O)C(Nc1ccccc1F)c1ccc(N2CCCCC2)nc1 (mixture of isomers) [Cpd 335]
inhibition at 0.2 µM (canine TRPM8 HEK293, icilin): 101%
IC50: 26 nM

COc1ccccc1C1CCCN1C(=O)C(Nc1ccccc1)c1ccc(C(F)(F)F)cc1 (stereo not shown) [Cpd 43]
inhibition at 0.5 µM (canine TRPM8 HEK293, icilin): 101%
IC50: 33.3 nM

O=C(C(Nc1ccccc1)c1ccc(C(F)(F)F)cc1)N1CCCC1c1ccccc1Br (stereo not shown) [Cpd 29]
inhibition at 0.5 µM (canine TRPM8 HEK293, icilin): 104%
IC50: 40.9 nM

O=C(C(Nc1ccccc1F)c1cnc2ccccc2c1)N1CCCC1c1ccccc1F (stereo not shown) [Cpd 281]
inhibition at 0.2 µM (canine TRPM8 HEK293, icilin): 89%
IC50: 94 nM

COC(=O)c1cccc([C@@H]2CCCN2C(=O)C(Nc2ccccc2F)c2ccc(C(F)(F)F)cc2)c1 (mixture of isomers) [Cpd 347]
inhibition at 0.2 µM (canine TRPM8 HEK293, icilin): 99%
IC50: 40 nM

COc1ccc(NC(C(=O)N2CCCC2c2ccccc2Cl)c2ccc(Cl)cc2)cc1 (stereo not shown) [Cpd 136]
inhibition at 0.5 µM (canine TRPM8 HEK293, icilin): 90%
IC50: 193 nM

CC(C)(C)c1ccc(C(Nc2ccccc2)C(=O)N2CCCC2c2ccc(Cl)cc2)cc1 (single isomer, unassigned) [Cpd 7]
% Inh @ 1 μM (1 μM compound, canine TRPM8 HEK293, icilin, 1 µM): 89.12%
IC50: 636 nM

O=C(C(Nc1ccccc1F)c1ccc(C(F)(F)F)cc1)N1CCCC1c1ccccc1F (single isomer, unassigned) [Cpd 154]
% Inh @ 0.5 μM [1]: 97.552%
IC50: 104 nM

COC(=O)c1cc(C(Nc2ccccc2F)C(=O)N2CCCC2c2ccccc2F)ccc1Cl (mixture of isomers) [Cpd 309]
% Inh @ 0.2 μM (canine TRPM8 HEK293, icilin): 102%
IC50: 13 nM

COc1ccccc1C1CCCN1C(=O)C(Nc1ccccc1)c1cccc(C(F)(F)F)c1 (stereo not shown) [Cpd 98]
inhibition at 0.5 µM (canine TRPM8 HEK293, icilin): 100%
IC50: 56 nM

O=C(C(Nc1ccccc1F)c1ccc(Br)cc1)N1CCCC1c1ccccc1F (single isomer, unassigned) [Cpd 160]
% Inh @ 0.2 μM [2]: 87%
% Inh @ 0.5 μM [1]: 95%
IC50: 39 nM and 13 nM

O=C(C(Nc1ccccc1F)c1ccc(-c2cccnc2)cc1)N1CCCC1c1ccccc1F (stereo not shown) [Cpd 285, 2-(2-Fluoro-phenylamino)-1-[2-(2-fluoro-phenyl)-pyrrolidin-1-yl]-2-(4-pyridin-3-yl-phenyl)-ethanone]
% Inh @ 0.2 μM [2]: 96%
inhibition at 0.2 µM (canine TRPM8 HEK293, icilin): 91%
IC50: 12 nM and 15 nM

O=C(C(Nc1ccccc1F)c1ccc(C(F)(F)F)cc1)N1CCCC1c1ccc(F)cc1 (stereo not shown) [Cpd 135]
inhibition at 0.5 µM (canine TRPM8 HEK293, icilin): 100%
IC50: 37.4 nM

O=C(C(Nc1ccc(F)cc1)c1ccc(C(F)(F)F)cc1)N1CCCC1c1ccccc1Cl (stereo not shown) [Cpd 74]
inhibition at 0.5 µM (canine TRPM8 HEK293, icilin): 98%
IC50: 73 nM

O=C(C(Nc1ccccc1F)c1cc2ccccc2s1)N1CCCC1c1ccccc1F (mixture of isomers) [Cpd 245]
% Inh @ 0.2 μM (canine TRPM8 HEK293, icilin): 98%
IC50: 2.6 nM

COc1ccccc1C1CCCN1C(=O)C(Nc1ccc(F)cc1)c1ccc(Cl)cc1 (stereo not shown) [Cpd 118]
inhibition at 0.5 µM (canine TRPM8 HEK293, icilin): 100%
IC50: 31.7 nM

O=C(C(Nc1ccccc1)c1ccc(Cl)cc1)N1CCCC1c1ccccc1Cl (stereo not shown) [Cpd 84]
inhibition at 0.5 µM (canine TRPM8 HEK293, icilin): 98%
IC50: 15 nM

O=C(C(Nc1ccccc1F)c1ccc(Cl)cc1)N1CCCC1c1ccccc1F (single isomer, unassigned) [Cpd 157]
inhibition at 0.5 µM (canine TRPM8 HEK293, icilin): 93%
IC50: 146 nM

O=C(C(Nc1ccccc1)c1ccccn1)N1Cc2ccccc2C1 (racemic) [Cpd 216]
% Inh @ 0.2 μM (canine TRPM8 HEK293, icilin): 32%

CC(C)(C)c1ccc(C(Nc2ccccc2)C(=O)N2CCCC2c2ccccc2Cl)cc1 (single isomer, unassigned) [Cpd 1]
inhibition at 1 µM (canine TRPM8 HEK293, icilin): 101%
IC50: 313 nM

O=C(C(c1ccc(C(F)(F)F)cc1)N1CCc2ccccc21)N1CCC[C@H]1c1cccnc1 (single isomer, unassigned) [Cpd 274]
inhibition at 0.2 µM (canine TRPM8 HEK293, icilin): 98%
IC50: 17 nM

O=C(C(CNc1ccccc1F)c1ccc(C(F)(F)F)cc1)N1Cc2ccccc2C1 (stereo not shown) [Cpd 106]
inhibition at 0.5 µM (canine TRPM8 HEK293, icilin): 98%
IC50: 170 nM

O=C(NN1CCCC1c1ccccc1Cl)C(Nc1ccccc1)c1ccc(C(F)(F)F)cc1 (stereo not shown) [Cpd 63, N-[2-(2-Chloro-phenyl)-pyrrolidin-1-yl]-2-phenylamino-2-(4-trifluoromethyl-phenyl)-acetamide]
inhibition at 0.5 µM (canine TRPM8 HEK293, icilin): 36%

O=C(C(Nc1ccccc1)c1ccccn1)N1CCCC1c1ccccc1F (racemic) [Cpd 218]
% Inh @ 0.2 μM [2]: 49%

O=C(C(Nc1ccccc1)c1ccc(C(F)(F)F)cc1)N1CCCC1c1ccccc1F (stereo not shown) [Cpd 20]
inhibition at 1 µM (canine TRPM8 HEK293, icilin): 101%
IC50: 29.9 nM

CNC(=O)c1ccc(C(Nc2c(F)cccc2F)C(=O)N2CCCC2c2ccccc2F)cc1 (mixture of isomers) [Cpd 265]
% Inh @ 0.2 μM (canine TRPM8 HEK293, icilin): 15%

O=C(C(Nc1ccccc1F)c1ccc(-c2cccnc2)cc1)N1CCCC1c1ccccc1Cl (stereo not shown) [Cpd 343]
inhibition at 0.2 µM (canine TRPM8 HEK293, icilin): 101%
IC50: 17 nM

COc1ccccc1C1CCCN1C(=O)C(Nc1cc(F)ccc1F)c1ccc(Cl)cc1 (stereo not shown) [Cpd 172]
inhibition at 0.2 µM (canine TRPM8 HEK293, icilin): 102%
IC50: 29.6 nM

O=C(C(Nc1ccc(F)cc1)c1ccc(C(F)(F)F)cc1)N1CCCC1c1ccccc1 (single isomer, unassigned) [Cpd 76]
% Inh @ 0.5 μM [1]: 97%
IC50: 101 nM

O=C(C(Nc1ccccc1F)c1ccc(C(F)(F)F)cc1)N1CCc2ccccc2C1 (stereo not shown) [Cpd 65]
inhibition at 0.5 µM (canine TRPM8 HEK293, icilin): 100%
IC50: 48 nM

O=C(C(Nc1ccccc1F)c1cc2cccnc2s1)N1CCCC1c1ccccc1F (racemic) [Cpd 320]
inhibition at 0.2 µM (canine TRPM8 HEK293, icilin): 87%
IC50: 25 nM

O=C(C(CNc1ccccc1)c1ccc(C(F)(F)F)cc1)N1CCc2ccccc21 (racemic) [Cpd 40]
% Inh @ 0.5 μM (canine TRPM8 HEK293, icilin): 90.495%
IC50: 233 nM

O=C(C(Nc1cccc(Cl)c1)c1ccc(C(F)(F)F)cc1)N1CCc2ccccc21 (racemic) [Cpd 38]
% Inh @ 0.5 μM (canine TRPM8 HEK293, icilin): 63.009%

O=C(C(Nc1ccccc1F)c1ccc(Br)cc1)N1Cc2ccccc2C1 (stereo not shown) [Cpd 92]
inhibition at 0.5 µM (canine TRPM8 HEK293, icilin): 98%
IC50: 89 nM

O=C(C(c1ccc(C(F)(F)F)cc1)N1CCc2ccccc21)N1CCc2ccccc21 (stereo not shown) [Cpd 42]
inhibition at 0.5 µM (canine TRPM8 HEK293, icilin): 102%
inhibition at 1 µM (canine TRPM8 HEK293, icilin): 29%
IC50: 231 nM

O=C(C(Nc1ccccc1F)c1ccc(-c2ccccn2)cc1)N1CCCC1c1ccccc1F (single isomer, unassigned) [Cpd 296]
% Inh @ 0.2 μM [2]: 96%
inhibition at 0.2 µM (canine TRPM8 HEK293, icilin): 88%
IC50: 4 nM and 9 nM

O=C(C(Nc1ccc(F)cc1)c1ccc(Cl)cc1)N1Cc2ccccc2C1 (stereo not shown) [Cpd 120]
inhibition at 0.5 µM (canine TRPM8 HEK293, icilin): 95%
IC50: 130 nM

O=C(C(Nc1cccc(F)c1F)c1ccc(Cl)cc1)N1CCCC1c1ccccc1Cl (single isomer, unassigned) [Cpd 166]
% Inh @ 0.5 μM [1]: 96%
IC50: 61 nM

O=C(C(Cc1c(F)cccc1F)c1ccc(C(F)(F)F)cc1)N1CCCC1c1ccccc1Cl (stereo not shown) [Cpd 267]
inhibition at 0.2 µM (canine TRPM8 HEK293, icilin): 98%
IC50: 30 nM

CN(C)c1ccc(C2CCCN2C(=O)C(Nc2ccccc2F)c2ccc(Cl)cc2)cc1 (stereo not shown) [Cpd 272]
inhibition at 0.2 µM (canine TRPM8 HEK293, icilin): 96%
IC50: 110 nM

COc1ccccc1C1CCCN1C(=O)C(Nc1c(F)cccc1F)c1ccc(Cl)cc1 (stereo not shown) [Cpd 145]
inhibition at 0.5 µM (canine TRPM8 HEK293, icilin): 99%
IC50: 16 nM

O=C(C(Nc1ccccc1F)c1ccc(C(F)(F)F)cc1)N1CCCC1c1cncc(Br)c1 (single isomer, unassigned) [Cpd 345]
inhibition at 0.2 µM (canine TRPM8 HEK293, icilin): 92%
IC50: 44 nM

O=C(C(Nc1ccc(Cl)cc1)c1ccc(C(F)(F)F)cc1)N1CCc2ccccc21 (racemic) [Cpd 39]
% Inh @ 0.5 μM (canine TRPM8 HEK293, icilin): 73.007%

O=C(C(CNc1ccccc1)c1ccc(C(F)(F)F)cc1)N1Cc2ccccc2C1 (stereo not shown) [Cpd 100]
inhibition at 0.5 µM (canine TRPM8 HEK293, icilin): 90%
IC50: 290 nM

O=C(C(Nc1ccccc1F)c1cc2ccccc2s1)N1CCCC1c1ccncc1 (single isomer, unassigned) [Cpd 323]
% Inh @ 0.2 μM [2]: 95%
IC50: 24 nM

Reference: patent US8143259B2, “Cold menthol receptor antagonists” (Janssen Pharmaceutica, NV, priority 2008, dated 2012)
